# Measured values: patent US12553889B2, “Small molecules targeting the intrinsically disordered structural ensemble of α-synuclein protect against diverse α-synuclein mediated dysfunctions” (The Regents of the University of California, priority 2019, dated 2026)
# System: αSyn
# Assay: αSyn split NanoBit luciferase (Nluc) oligomerization assay
# Assay type: biochemical, human
# Conditions: 100 μM compound, 10 μM of each tagged αSyn; for activity in NanoBit complementation αSyn oligomerization assay: full time-course
# Procedure: Ten μM αSyn-LgBiT, 10 μM αSyn-SmBiT, and Hsp70 (at 0, 10, or 30 μM), 1 mM MgCl2 and 1 mM ADP were mixed in PBS at pH 7.4 and incubated at 37° C. in a thermal cycler (BioRad DNA Engine PTC-200). At 0, 3, 6, 12 and 24 hours. The NanoBit luciferase activity was quantified using a NanoFuel® GLOW Assay for Oplophorus Luciferases (NanoLight) according to the manufacturer's instructions and read on SpectraMax L Microplate Reader (Molecular Devices) with an 8 minute delay after the addition of substrate and 1 sec integration time reading each well. The luciferase activity was normalized to the reaction without Hsp70 at 24 hour time point.
# • 1. αSyn-LgBiT or LgBiT is mixed with αSyn-SmBiT at 10 μM of each (PBS pH 7.4); • 2. Incubate at 37 degree for 24 hours in PCR machine; • 3. Take 10 μL samples at 0/3/6/12/24 hours; • 4. Luminescence measurement is done using Luminometor (with injector) using h-CTZ (40 uM), 2 sec delay, 3 sec integration. Protocol: • 1. αSyn-LgBiT (10 uM) and αSyn-SmBiT (10 uM) are mixed in PBS buffer (pH 7.4); • 2. The reaction mixture is incubated in 37° C. incubator either being shaken (1000 rpm) or still; • 3. Samples are taken from the reaction at 0/3/12/24/36/48/72/96/120/144 h for ThT and Nluc assays; NLuc Assay:
# • 1. Mix fusion proteins in PBS buffer (pH 7.4) to create the following three master mixes:
# • 2. Dispense 10 μL protein master mix into 384-well plate (Greiner, 781904) using Mantis; • Col 1 & 23: Positive control • Col & 24: Negative control • Col 3-22: Reactions • 3. […] Seal plates using sticky foil (E&K Scientific T790080); • 5. Incubate the sealed plates at 37° C. with heat blocks above and beneath the sealed plates, use dummy plates around the reaction plate, incubate at 37° C. incubator in room N401 for 0-24 h; Day 2. I. Prepare the Plates and Substrate • 6. Cool the plates at room temp for 30 min after 24-hour incubation; • 7. Spin the plates at 500×g for 1 min; • 8. Make substrate mix (NanoLight Cat #325), keep it in darkness; II. Prepare the Plate Reader • 9. Turn on SpectraMaxL, make sure the aperture is in the right position (96/384 well):
# To change: Control>Change Aperture>Lift the top panel>Press down the button and turn it to the right position>Put the panel down • 10. Put the P-injector tube into the H2O bottle, wash the injector: Control>Prime P-injector for 30× injections • 11. Remove the P-injector and leave it in the air, then empty the injector: Control>Prime P-injector for 30× injections; • 12. Put the P-injector from the substrate tube, prime the injector: Control>Prime P-injector for 20× injections III. Read the Plates • 13. Nluc assay: • Sample vol: 10 μl (dispensed on day 1) • Substrate vol: 25 μl (NanoLight Cat #325)
# The SpectraMaxL will do two rounds of reads, the first round will inject substrates, the second round will read entire 384-well plate and make sure the interval between inject and read for each well is exactly the same (in this protocol, the interval is 8 min exactly)
activity in NanoBit complementation αSyn oligomerization assay,Compound,impact relative to 576755 in NanoBit complementation assay
active,"CNC(=O)c1cc(O)ccc1NC [Compound 581858, 2-methylamino-5-hydroxy-N-methylbenzamide]",slightly less impact than compound 576755
active,"CNC(=O)c1cc(O)ccc1O [Compound 583854, 2,5-dihydroxy-N-methylbenzamide]",–
active,"CNC(=O)c1cc(O)ccc1N [Compound 576755, 2-amino-5-hydroxy-N-methylbenzamide]",–
active,"CNC(=O)c1cc(O)ccc1N(C)C [Compound 581823, 2-dimethylamino-5-hydroxy-N-methylbenzamide]",–
